“Also recorded” adds a separate entry of the source.
Legend:
[1] = test system: bone marrow-derived macrophages (BMDMs); assay: Cell death in BMDMs quantified by propidium iodide staining (real-time imaging); assay type: cell-based, mouse; details: for cell death compared with wild-type cells: Adar1−/− BMDMs; for cell death (PI staining): wild-type BMDMs, 24 hours, 5 μM KPT-330 or 5 ng/ml leptomycin B, with or without 50 ng/mL IFN-β or IFN-γ
Method: (§1) Cell Culture. Primary mouse bone marrow-derived macrophages (BMDMs) were generated from the bone marrow of wild-type and the indicated mutant mice. Cells were grown for 5-6 days in Iscove's Modified Dulbecco's Media (IMDM, Thermo Fisher Scientific) supplemented with 1% non-essential amino acids (Thermo Fisher Scientific), 10% fetal bovine serum (FBS, Biowest), 30% L929-conditioned media, and 1% penicillin and streptomycin (Thermo Fisher Scientific). BMDMs were then seeded into antibiotic-free media at a concentration of 1×10^6 cells into 12-well plates and incubated overnight.
(§2) Cell Stimulation. BMDMs were treated with 5 μM of KPT-330 (Selleckchem) or 5 ng/ml of leptomycin B (Sigma) in the presence and absence of 50 ng/mL of IFN-γ (Peprotech) or 50 ng/mL of IFN-β (PBL Assay) for 12 or 24 hours, as indicated.
Real-time Imaging for Cell Death. The kinetics of cell death were determined using the INCUCYTE® S3 (Essen BioScience) live-cell analysis system. BMDMs (5×10^5 cells/well) were seeded in 24-well tissue culture plates. Cells were treated with the indicated stimuli and stained with propidium iodide (PI; Life Technologies) following the manufacturer's protocol. The plate was scanned, and fluorescent and phase-contrast images (4 image fields/well) were acquired in real-time every 1 hour from 0 to 24 hours post-treatment. PI-positive dead cells are marked with a red mask for visualization. The image analysis, masking, and quantification of dead cells were done using the software package supplied with the INCUCYTE® imager.

ZBP1 = assay: Co-immunoprecipitation of ZBP1 with ADAR1 and RIPK3 in BMDMs; assay type: cell-based, mouse; details: wild-type BMDMs, 12 hours
Method: Co-Immunoprecipitation Assay. BMDMs (10×10^6 cells) were seeded into 10-cm dishes and treated with IFN-β or KPT-330 or combination of IFN-β and KPT-330 for 12 hours. Then, the cells were lysed in a buffer containing 20 mM Tris-HCl (pH 7.4), 100 mM NaCl, 30 mM KCl, and 0.1% NP-40. After centrifugation at 16,000 g for 10 minutes, the lysates were incubated with anti-ZBP1 antibody (AdipoGen) with protein A/G PLUS-Agarose (Santa Cruz Biotechnology) for overnight incubation at 4° C. After washing with the above buffer, the immunoprecipitated proteins were harvested by boiling in 1×SDS loading buffer at 100° C. for 5 minutes.

[2] = test system: endogenous retroelements (EREs); assay: RT-PCR expression of endogenous retroelements (EREs) in BMDMs; assay type: cell-based, mouse; details: wild-type BMDMs, NEI alone
Method: RT-PCR Analysis. Total RNA was extracted using TRIZOL® (Thermo Fisher Scientific) and converted into cDNA by using the High-Capacity cDNA Reverse Transcription Kit (Applied Biosystems). Real-time quantitative PCR was performed on an Applied Biosystems 7500 real-time PCR instrument with 2×SYBR™ Green (Applied Biosystems). For ERE expression analysis, 5 μg of total RNA extracted from the cells was dissolved in 46 μl of water and mixed with 3.5 μl NaCl (5 M stock). Then, 0.5 μl RNase A (10 mg/ml stock, Thermo Fisher Scientific) or water (as mock) was added to a total volume of 50 μl and mixed, followed by incubation at room temperature for 10 minutes. Then 1 ml acid-guanidinium-phenol based reagent sold under the tradename TRIZOL® was directly added to the mixture to terminate digestion, and the RNA was extracted. The RNA transcripts of selected endogenous retroelements (EREs) were measured by RT-PCR with GAPDH as an internal control. The ratios of (ERE/GAPDH)RNAase-A/(ERE/GAPDH)mock were calculated as fold enrichment.

BMDMs = assay: Immunoblot analysis of pyroptosis, apoptosis and necroptosis (PANoptosis) molecules in BMDMs; assay type: cell-based, mouse; details: for cleavage of caspase-1 and activation of GSDME, caspase-8, -3, -7 and MLKL: Adar1−/− BMDMs, NEI alone
Method: as §1, §2
Immunoblot Analysis. Cell lysates and culture supernatants were combined in caspase lysis buffer (containing 1× protease inhibitors (Roche), 1× phosphatase inhibitors (Roche), 10% NP-40, and 25 mM DTT) and 4× sample loading buffer (containing SDS and 2-mercaptoethanol) for immunoblot analysis of caspases. For immunoblot analysis of signaling components, supernatants were removed, and cells were washed once with Dulbecco's phosphate-buffered saline (DPBS, Thermo Fisher Scientific), followed by lysis in radioimmunoprecipitation assay (RIPA) buffer and sample loading buffer. Proteins were separated by electrophoresis through 8-12% polyacrylamide gels. Following electrophoretic transfer of proteins onto polyvinylidene fluoride (PVDF) membranes (Millipore), nonspecific binding was blocked by incubation with 5% skim milk, then membranes were incubated with primary antibodies against: caspase-3 (Cell Signaling Technology (CST), 1:1000), cleaved caspase-3 (CST, 1:1000), caspase-7 (CST, 1:1000), cleaved caspase-7 (CST, 1:1000), caspase-8 (AdipoGen, 1:1000), cleaved caspase-8 CST, 1:1000), caspase-11 (Novus Biologicals, 1:1000), caspase-1 (AdipoGen, 1:1000), GAPDH (CST, 1:1000), ZBP1 (AdipoGen, 1:1000), pMLKL (CST, 1:1000), tMLKL (Abgent, 1:1000), ADAR1 (Santa Cruz Biotechnology, 1:500), tRIPK1 (CST, 1:1000), GSDMD (Abcam, 1:1000), GSDME (Abcam, 1:1000), RIPK3 (CST, 1:1000), pSTAT1 (CST, 1:1000), tSTAT (CST, 1:1000), pIRF3 (CST, 1:1000), HA (Millipore, 1:1000), β-actin (Proteintech, 1:1000). Membranes were then washed and incubated with the appropriate horseradish peroxidase (HRP)-conjugated secondary antibodies (Jackson ImmunoResearch Laboratories; anti-rabbit, 1:5000; anti-mouse 1:5000; and anti-rat, 1:5000). Proteins were visualized using Immobilon Forte Western HRP Substrate (Millipore).

endogenous dsRNA = assay: dsRNA by J2 antibody dot-blot analysis and immunofluorescence in BMDMs; assay type: cell-based, mouse; details: for amount of dsRNA: Adar1−/− BMDMs; for amount of dsRNA compared with media-treated cells: wild-type BMDMs
Method: Dot Blot Analysis. For dsRNA analysis, total RNA was isolated from the cells. Equal volumes (2 μl containing 1 μg of RNA) of the RNA were dotted on HYBONDO N+ membrane (GE Healthcare), dried and auto crosslinked in a UV Stratalinker 2400 (Stratagene) two times. The membrane was then blocked in 5% milk in TBST for 1 hour and probed with J2 antibody (1:1000, Scicons) at 4° C. overnight. On the next day, the membrane was washed with TBST 3 times and probed with secondary goat-anti-mouse HRP antibody in 5% milk at room temperature for 1 hour. The total […] was detected using methylene blue.
Immunofluorescence Staining. BMDMs were washed with phosphate-buffered saline (PBS) and fixed in 4% paraformaldehyde for 15 minutes at room temperature, followed by permeabilization for 10 minutes in 0.5% TRITON® X-100 (2-[4-(2,4,4-trimethylpentan-2-yl)phenoxy]ethanol). Cells were blocked in 5% normal goat serum (Life Technologies) for 1 hour at room temperature. Samples were incubated with anti-ZBP1 antibody (1:250 dilution, Adipogen) or anti-J2 antibody (1:100, Millipore) overnight at 4° C. Cells were then washed three times with PBS and incubated with ALEXA FLUOR® 647 fluorescent dye-conjugated antibody against mouse immunoglobulin G (1:250, Invitrogen) and counterstained with DAPI (4′,6-diamidino-2-phenylindol, Life Technologies) for 1 hour at room temperature. Cells were washed three times with PBS and imaged using a Leica SP8 confocal microscope.

B16-F10 melanoma cells = assay: B16-F10 melanoma model in mice; assay type: in vivo, mouse; details: wild-type mice; KPT-330 15 mg/kg oral, IFN-γ 10 μg or IFN-α/IFN-β 1 μg i.p., days 8, 10 and 13 after implantation
Method: Melanoma Model. The mouse melanoma cell line B16-F10 (ATCCR CRL-6322™) was cultured in a humidified, 5% CO2 incubator at 37° C., and grown in Dulbecco's Modified Eagle Medium (DMEM) with 10% FBS and 100 U/mL penicillin/streptomycin. Male and female 6-12-week-old mice were shaved on their lower back and engrafted with B16-F10 melanoma cells by subcutaneously injecting 1×10^6 cells in 200 μL PBS. Tumors were measured with digital calipers, and tumor volume was calculated using the formula: volume=(length×width^2)×½. For treatment with IFN-γ (Peprotech), each mouse was injected interperitoneally with 10 μg of IFN-γ in 100 μl of saline. For treatment with IFN-α or IFN-β, each mouse was injected interperitoneally with 1 μg of IFN-α or IFN-β. For treatment with KPT-330 (Selleckchem), each mouse was orally administered 300 μl of KPT-330 (15 mg/kg) suspended in 0.6% polyoxyalkylene ether sold under the tradename PLURONIC® (Gibco) and 0.6% polyvinylpyrrolidone. The treatment was given on days 8, 10 and 13 after tumor implantation.

Molecule: O=C(/C=C\n1cnc(-c2cc(C(F)(F)F)cc(C(F)(F)F)c2)n1)NNc1cnccn1 [KPT-330, selinexor]
- cell death compared with wild-type cells [1]: increased cell death
- cell death (PI staining) [1]: low level of cell death
- interaction of ZBP1 with ADAR1 (ZBP1): some interaction
- interaction of ZBP1 with RIPK3 (ZBP1): some interaction
- expression of EREs (Mus-D, Line1, ERV-L) [2]: slightly upregulated
- cleavage of caspase-1 and activation of GSDME, caspase-8, -3, -7 and MLKL (BMDMs): increased cleavage of caspase-1 and activation
- apoptosis: cleavage of caspase-8, -3 and -7 (BMDMs; wild-type BMDMs): induced apoptosis
- cleavage of GSDME (pyroptosis) (BMDMs; wild-type BMDMs): displayed cleavage of GSDME
- phosphorylation of MLKL (necroptosis) (BMDMs; wild-type BMDMs): low level of phosphorylation of MLKL
- amount of dsRNA (endogenous dsRNA): An increase in the amount of dsRNA
- amount of dsRNA compared with media-treated cells (endogenous dsRNA): slightly increased the amounts of dsRNA
- melanoma tumor growth / regression (B16-F10 melanoma cells): reduced melanoma growth

Molecule: CCC(=C/[C@H](C)C/C=C/C(C)=C/[C@@H](C)C(=O)[C@@H](C)[C@H](O)[C@@H](C)C/C(C)=C/C(=O)O)/C=C/[C@@H]1OC(=O)C=C[C@@H]1C [LMB, Leptomycin B]
- cell death compared with wild-type cells [1]: increased cell death
- cell death (PI staining) [1]: low level of cell death
- expression of EREs (Mus-D, Line1, ERV-L) [2]: slightly upregulated
- cleavage of caspase-1 and activation of GSDME, caspase-8, -3, -7 and MLKL (BMDMs): increased cleavage of caspase-1 and activation
- apoptosis: cleavage of caspase-8, -3 and -7 (BMDMs; wild-type BMDMs): induced apoptosis
- cleavage of GSDME (pyroptosis) (BMDMs; wild-type BMDMs): displayed cleavage of GSDME
- phosphorylation of MLKL (necroptosis) (BMDMs; wild-type BMDMs): low level of phosphorylation of MLKL
- amount of dsRNA (endogenous dsRNA): An increase in the amount of dsRNA
- amount of dsRNA compared with media-treated cells (endogenous dsRNA): slightly increased the amounts of dsRNA

B1: IFN-β: type I interferon (PBL Assay), 50 ng/mL in cells, 1 μg per mouse (protein, listed as Homo sapiens)
chain: MTNKCLLQIALLLCFSTTALSMSYNLLGFLQRSSNFQCQKLLWQLNGRLEYCLKDRMNFDIPEEIKQLQQFQKEDAALTIYEMLQNIFAIFRQDSSSTGWNETIVENLLANVYHQINHLKTVLEEKLEKEDFTRGKLMSSLHLKRYYGRILHYLKAKEYSHCAWTIVRVEILRNFYFINRLTGYLRN
- interaction of ZBP1 with ADAR1 (ZBP1): robust interaction
- expression of ZBP1 / ADAR1 (BMDMs; wild-type BMDMs): induced ZBP1 expression; also recorded: upregulated
